The subject of one data set is α-glucosidase. Nature of the data set: In vitro α-glucosidase inhibition assay (pNPG substrate). It is filed as biochemical, Saccharomyces Cerevisiae. The following applies: for IC50: means ± SEM of triplicate. As to the method:
The α-glucosidase inhibition assay was performed as described previously. In summary, the stock solution of the enzyme from Saccharomyces Cerevisiae (0.2 U/mL) was prepared in 0.05 M sodium phosphate buffer pH 6.8. […] After incubation, 10 µL of the substrate, p-nitrophenyl α-D-glucopyranoside (pNPG, 5 mM solution in 0.05 M phosphate buffer) was added to the aboveprepared mixture and incubated again under the same experimental conditions. The reaction was stopped with the addition of 0.1 M Na2CO3 and OD405 was taken by a 96-well ELISA reader. The experiment was performed in triplicate.

The next data set deals with E. coli. The experiment in a line: Antibacterial activity, minimum inhibitory concentration. Details: key: R: resistant; S: sensitive. It is filed as cell-based. As to the method: (§1) The prepared azo derivatives were screened for their antibacterial activity against six bacterial strains obtained from hospital isolates i.e. gram positive (S. aureus, S. aureus (DR)) and gram-negative (E. coli, P. aeruginosa, P. aeruginosa (DR), P. vulgaris). All the strains were confirmed by biochemical identification and drug susceptibility methods. The antibacterial evaluation was done by agar disc diffusion method[39]^,[40] and MIC was determined. In summary, a 48-h old inoculum having ∼0.48 OD600, of the above-mentioned bacterial strains was spread on the solidified trypticase soy agar media and Whatman no. 1 filter paper discs (5 mm in diameter) soaked with the title compounds (10 µL/disc of 10 mg/mL) were placed on the plates. Ampicillin and moxifloxacin were used as positive controls and DMSO as negative control respectively.

The test system of data set [1] is P. aeruginosa (DR). Described as above. Type of data set: cell-based. Also noted: key: R: resistant; S: sensitive. How it is done:
as §1

Data set [2] relates to P. aeruginosa (DS). The description is as above. Details: key: R: resistant; S: sensitive. Type of data set: cell-based. As to the method: as §1
In a further data set the test system is P. vulgaris. The data set is described as above. It is filed as cell-based. Also noted: key: R: resistant; S: sensitive. How it is done:
as §1

The test system of data set [3] is S. aureus (DR). The data set is described as above. Type of data set: cell-based. Details: key: R: resistant; S: sensitive. As to the method: as §1
For data set [4], the system named is S. aureus (DS). The data set is described as above. It is filed as cell-based. Also noted: key: R: resistant; S: sensitive. As to the method:
as §1

Data set [5] deals with P. aeruginosa (DR). The experiment in a line: Antibiofilm assay (crystal violet). Type of data set: cell-based. The following applies: Pseudomonas aeruginosa; 0.5 mg/mL; read-out: biofilm inhibition (anti-biofilm potency). How it is done:
(§2) The antibiofilm activity of the synthesised azo derivatives was assessed by microtitre plate-based crystal violet method[44] against respective bacterial strains i.e. gram-positive (S. aureus, S. aureus (DR)) and gram-negative (P. aeruginosa, P. aeruginosa (DR)). In brief, 10 µL bacterial suspension, 100 µL trypticase soy broth and 10 µL (10 mg/mL) of test compounds were added in the wells in duplicates and incubated at 37 °C overnight. Ampicillin and moxifloxacin were used as positive controls. After the aspiration of planktonic cells, the biofilm was fixed with 99% methanol. The wells were then washed with 0.1 M sterile PBS (pH = 6.9) thrice and air-dried. Then, 200 µL of crystal violet solution (2%) was added to all wells. After 15 min, the excess of the crystal violet dye was removed and the wells were washed again with PBS. Then, the cell-bound crystal violet was dissolved in 33% acetic acid. The biofilm growth was quantified in terms of OD575 nm using an ELISA plate reader and biofilm hydrolysis was calculated by % inhibition formula.

Data set [6] concerns S. aureus (DR). Nature of the data set: Antibiofilm assay (crystal violet). It is filed as cell-based. The following applies: 0.5 mg/mL. As to the method: as §2
Data set [7] has as its system S. aureus (DS). The experiment in a line: Antibiofilm assay (crystal violet). It is filed as cell-based. The following applies: 0.5 mg/mL. As to the method: as §2
For data set [8], the system named is P. aeruginosa (DS). The experiment in a line: Antibiofilm assay (crystal violet). It is filed as cell-based. The following applies: 0.5 mg/mL. As to the method: as §2

Each structure is given as a SMILES string. Values after ≈ are worked out from the molar mass of the structure shown.

From article PMC8274517, “Diaryl azo derivatives as anti-diabetic and antimicrobial agents: synthesis, in vitro, kinetic and docking studies” (Journal of Enzyme Inhibition and Medicinal Chemistry, 2021) come the findings set out here.

In general, % Inhibition refers to the relative decrease from the control value, in per cent. For orientation: IC50 means the concentration that gives 50% inhibition. One may read the inhibition as the change of the read-out against control, counted positive when it falls. As a reminder, the melting point is the temperature, or range, at which the solid turns liquid. Compound `Oc1ccc(N=Nc2cccnc2Cl)c2ccccc12` [TR-8, 4-((2-chloropyridin-3-yl)diazenyl)naphthalen-1-ol] displayed a melting point of 170 to 175 °C. Besides, in the data set with α-glucosidase (15.62 µg/mL), the “% Inhibition” value is listed as 29%. For the same compound, in the data set on α-glucosidase (31.2 µg/mL), the “% Inhibition” value was determined as 45%. For the same compound, in the data set on α-glucosidase (125 µg/mL), the “% Inhibition” value was 75%. Besides, the “% Inhibition” value with α-glucosidase (250 µg/mL) was determined as 98%. Besides, the IC50 against α-glucosidase was determined as 36.7 ± 3.1 µg/mL (≈ 129 µM). In the data set on E. coli (125 µg/200 µL), the “Minimum inhibitory concentration: sensitive/resistant” value is “R”. Besides, in the data set with E. coli (250 µg/200 µL), the “Minimum inhibitory concentration: sensitive/resistant” value was “R”. The “Minimum inhibitory concentration: sensitive/resistant” value with P. aeruginosa (DR) [1] (125 µg/200 µL) is “R”. The “Minimum inhibitory concentration: sensitive/resistant” value in the data set on P. aeruginosa (DR) [1] (250 µg/200 µL) is listed as “R”. Further, in the data set with P. aeruginosa (DS) [2] (125 µg/200 µL), the “Minimum inhibitory concentration: sensitive/resistant” value was “R”. Besides, the “Minimum inhibitory concentration: sensitive/resistant” value in the data set with P. aeruginosa (DS) [2] (250 µg/200 µL) is “S”. The “Minimum inhibitory concentration: sensitive/resistant” value with P. vulgaris (125 µg/200 µL) was “R”. Also, the “Minimum inhibitory concentration: sensitive/resistant” value with P. vulgaris (250 µg/200 µL) is “R”. In addition, in the data set with S. aureus (DR) [3] (125 µg/200 µL), the “Minimum inhibitory concentration: sensitive/resistant” value is reported as “R”. Moreover, the “Minimum inhibitory concentration: sensitive/resistant” value with S. aureus (DR) [3] (250 µg/200 µL) is listed as “R”. The “Minimum inhibitory concentration: sensitive/resistant” value in the data set on S. aureus (DS) [4] (125 µg/200 µL) is “S”. Besides, the “Minimum inhibitory concentration: sensitive/resistant” value in the data set with S. aureus (DS) [4] (250 µg/200 µL) was “S”. Moreover, the inhibition at 500 µg/mL with P. aeruginosa (DR) [5] worked out at 80%. In addition, the biofilm hydrolysis efficiency result in the data set with S. aureus (DR) [6] is “drastically decreased”. The biofilm inhibition result in the data set with S. aureus (DS) [7] is given as “greater than 70%”.

As for `Oc1ccc(N=Nc2cccnc2Cl)c(O)c1` [TR-7, 4-((2-chloropyridin-3-yl)diazenyl)benzene-1,3-diol], the melting point lay within 187 to 189 °C. Also, the “% Inhibition” value in the data set on α-glucosidase (15.62 µg/mL) is 34%. The “% Inhibition” value in the data set on α-glucosidase (31.2 µg/mL) is on record as 52%. Moreover, in the data set on α-glucosidase (125 µg/mL), the “% Inhibition” value worked out at 77%. In addition, in the data set with α-glucosidase (250 µg/mL), the “% Inhibition” value is listed as 87%. For the same compound, the IC50 against α-glucosidase was 29.7 ± 2.8 µg/mL (≈ 119 µM). The “Minimum inhibitory concentration: sensitive/resistant” value in the data set on E. coli (125 µg/200 µL) was “R”. The “Minimum inhibitory concentration: sensitive/resistant” value with E. coli (250 µg/200 µL) is reported as “R”. The “Minimum inhibitory concentration: sensitive/resistant” value in the data set on P. aeruginosa (DR) [1] (125 µg/200 µL) is “S”. The “Minimum inhibitory concentration: sensitive/resistant” value in the data set with P. aeruginosa (DR) [1] (250 µg/200 µL) is recorded as “S”. The “Minimum inhibitory concentration: sensitive/resistant” value with P. aeruginosa (DS) [2] (125 µg/200 µL) is given as “R”. In addition, in the data set on P. aeruginosa (DS) [2] (250 µg/200 µL), the “Minimum inhibitory concentration: sensitive/resistant” value is “R”. Also, the “Minimum inhibitory concentration: sensitive/resistant” value in the data set on P. vulgaris (125 µg/200 µL) is “R”. In addition, the “Minimum inhibitory concentration: sensitive/resistant” value in the data set on P. vulgaris (250 µg/200 µL) is given as “R”. Further, the “Minimum inhibitory concentration: sensitive/resistant” value in the data set with S. aureus (DR) [3] (125 µg/200 µL) was “R”. Besides, the “Minimum inhibitory concentration: sensitive/resistant” value with S. aureus (DR) [3] (250 µg/200 µL) is reported as “R”. Besides, the “Minimum inhibitory concentration: sensitive/resistant” value with S. aureus (DS) [4] (125 µg/200 µL) is given as “R”. Further, in the data set on S. aureus (DS) [4] (250 µg/200 µL), the “Minimum inhibitory concentration: sensitive/resistant” value is given as “R”. Further, the inhibition at 500 µg/mL with P. aeruginosa (DR) [5] came to 55%. Further, the biofilm inhibition result in the data set with P. aeruginosa (DS) [8] is given as “not found active”.
